Test results published in patent US12110293B2, “Substituted triazolo quinoxaline derivatives” (GRÜNENTHAL GMBH, priority 2018, dated 2024).

The compounds below were run against T1, glucocorticoid receptor (Homo sapiens, UniProt P04150) (assay: Agonistic mode of action on the glucocorticoid receptor (CHO-Gal4/GR luciferase reporter cell line)). Conditions: range class observed in the agonistic assay or the antagonistic assay (CHO-Gal4/GR reporter cells); table does not say which mode applies per example.
T1 construct: expressed in transfected cells
T1 sequence (P04150 524-758 limits assumed): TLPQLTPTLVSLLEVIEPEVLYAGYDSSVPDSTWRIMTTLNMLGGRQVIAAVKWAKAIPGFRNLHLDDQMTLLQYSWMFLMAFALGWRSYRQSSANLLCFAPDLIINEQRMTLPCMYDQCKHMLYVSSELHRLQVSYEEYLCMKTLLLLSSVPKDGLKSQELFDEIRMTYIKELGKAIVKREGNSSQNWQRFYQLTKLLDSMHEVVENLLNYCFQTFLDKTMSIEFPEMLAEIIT
Assay type: cell-based
Summary of the method: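 Agonism measured as dose-dependent luciferase luminescence (FLIPR Tetra) from a GAL4-UAS reporter driven by GAL4 DBD fused to GR ligand-binding domain in stable CHO cells. Eight half-log doses, 10 μM to 0.003 μM final in 0.5% DMSO, quadruplicate, on cells seeded 24 h earlier at 5000/well; EC50 derived.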

SMILES	IC50 or EC50 (agonist or antagonist mode not specified) [nM]
Cc1c[nH]c2c(-c3ccc4c(c3C(F)(F)F)-n3c(C)nnc3C(C)(C)N4)cc(F)cc12 [Example 507, 8-(5-Fluoro-3-methyl-1H-indol-7-yl)-1,4,4-trimethyl-9-(trifluoro-methyl)-5H-[1,2,4]triazolo[4,3-a] quinoxaline]	< 100
Cc1cc2c(c(C)c1-c1cccc3c(C)c[nH]c13)-n1c(C)nnc1C(C)(C)N2 [Example 356, 1,4,4,7,9-Pentamethyl-8-(3-methyl-1H-indol-7-yl)-5H-[1,2,4]triazolo[4,3-a]quinoxaline]	< 100
COCCn1ccc2c(-c3c(F)cc4c(c3C(F)F)-n3c(C)nnc3C(C)(C)N4)cccc21 [Example 292, 9-(Difluoro-methyl)-7-fluoro-8-[1-(2-methoxy-ethyl)-1H-indol-4-yl]-1,4,4-trimethyl-5H-[1,2,4]triazolo[4,3-a]quinoxaline]	100 to 1000
Cc1c(-c2cc(Cl)cc3[nH]ccc23)c(F)cc2c1-n1c(C)nnc1C(C)(C)N2 [Example 513, 8-(6-Chloro-1H-indol-4-yl)-7-fluoro-1,4,4,9-tetramethyl-5H-[1,2,4]triazolo[4,3-a]quinoxaline]	100 to 1000
COc1cc2c(c(C(F)(F)F)c1-c1cc(F)cc3c1cnn3S(C)(=O)=O)-n1c(C)nnc1C(C)(C)N2 [Example 376, 8-(6-Fluoro-1-methylsulfonyl-1H-indazol-4-yl)-7-methoxy-1,4,4-trimethyl-9-(trifluoromethyl)-5H-[1,2,4]triazolo[4,3-a]quinoxaline]	1000 to 15000
CCc1c(-c2cc(F)cc3c2cnn3S(C)(=O)=O)c(F)cc2c1-n1c(C)nnc1C(C)(C)N2 [Example 52, 9-Ethyl-7-fluoro-8-(6-fluoro-1-methylsulfonyl-1H-indazol-4-yl)-1,4,4-trimethyl-5H-[1,2,4]triazolo[4,3-a]quinoxaline]	< 100
Cc1nnc2n1-c1c(cc(F)c(-c3cccc4[nH]c(C(F)(F)F)cc34)c1F)NC2(C)C [Example 225, 7,9-Difluoro-1,4,4-trimethyl-8-[2-(trifluoromethyl)-1H-indol-4-yl]-5H-[1,2,4]triazolo[4,3-a]quinoxaline]	< 100
Cc1nnc2n1-c1c(cc(F)c(-c3c(F)ccc4[nH]ccc34)c1F)NC2(C)C [Example 214, 7,9-Difluoro-8-(5-fluoro-1H-indol-4-yl)-1,4,4-trimethyl-5H-[1,2,4]triazolo[4,3-a]quinoxaline]	< 100
Cc1c(-c2cccc3[nH]ncc23)c(F)cc2c1-n1c(C)nnc1C(C)(C)N2 [Example 510, 7-Fluoro-8-(1H-indaxol-4-yl)-1,4,4,9-tetramethyl-5H-[1,2,4] triazolo[4,3-a]quinoxaline]	100 to 1000
Cc1nnc2n1-c1c(cc(F)c(-c3cc(C#N)cc4[nH]ccc34)c1C(F)(F)F)NC2(C)C [Example 479, 4-[7-Fluoro-1,4,4-trimethyl-9-(trifluoromethyl)-5H-[1,2,4]triazolo[4,3-a]quinoxalin-8-yl]-1H-indole-6-carbonitrile]	100 to 1000
COc1cc2c(c(C(F)(F)F)c1-c1cc(F)cc3c(C4CC4)c[nH]c13)-n1c(C)nnc1C(C)(C)N2 [Example 482, 8-(3-Cyclopropyl-5-fluoro-1H-indol-7-yl)-7-methoxy-1,4,4-trimethyl-9-(trifluoromethyl)-5H-[1,2,4]triazolo[4,3-a]quinoxaline]	< 100
Cc1nnc2n1-c1c(cc(F)c(-c3cc(F)cc4c3cnn4S(C)(=O)=O)c1C(F)(F)F)NC2(C)C [Example 454, 7-Fluoro-8-(6-fluoro-1-methylsulfonyl-1H-indazol-4-yl)-1,4,4-trimethyl-9-(trifluoromethyl)-5H-[1,2,4]triazolo[4,3-a]quinoxaline]	100 to 1000
COc1cc2c(c(C(F)(F)F)c1-c1cccc3c(C)c[nH]c13)-n1c(C)nnc1C(C)(C)N2 [Example 357, 7-Methoxy-1,4,4-trimethyl-8-(3-methyl-1H-indol-7-yl)-9-(trifluoromethyl)-5H-[1,2,4]triazolo[4,3-a]quinoxaline]	< 100
COCCn1ccc2c(-c3c(OC(F)(F)F)cc4c(c3C)-n3c(C)nnc3C(C)(C)N4)cccc21 [Example 460, 8-[1-(2-Methoxy-ethyl)-1H-indol-4-yl]-1,4,4,9-tetramethyl-7-(trifluoromethyloxy)-5H-[1,2,4]triazolo[4,3-a]quinoxaline]	100 to 1000
Cc1c(-c2cc(C(F)(F)F)cc3[nH]ccc23)c(Cl)cc2c1-n1c(C)nnc1C(C)(C)N2 [Example 475, 7-Chloro-1,4,4,9-tetramethyl-8-[6-(trifluoromethyl)-1H-indol-4-yl]-5H-[1,2,4]triazolo[4,3-a]quinoxaline]	100 to 1000
COc1c(-c2cccc3[nH]ccc23)c(F)cc2c1-n1c(C)nnc1C(C)(C)N2 [Example 286, 7-Fluoro-8-(1H-indol-4-yl)-9-methoxy-1,4,4-trimethyl-5H-[1,2,4]triazolo[4,3-a]quinoxaline]	100 to 1000
Cc1c(-c2cccc3c(C#CC(C)(C)O)c[nH]c23)c(F)cc2c1-n1c(C)nnc1C(C)(C)N2 [Example 39]	100 to 1000
COCCn1ccc2c(-c3c(F)cc4c(c3OC)-n3c(C)nnc3C(C)(C)N4)cccc21 [Example 281, 7-Fluoro-9-methoxy-8-[1-(2-methoxy-ethyl)-1H-indol-4-yl]-1,4,4-trimethyl-5H-[1,2,4]triazolo[4,3-a]quinoxaline]	100 to 1000
Cc1nnc2n1-c1c(cc(F)c(-c3cc(F)cc4c3ccn4C)c1C(F)F)NC2(C)C [Example 521, 9-(Difluoro-methyl)-7-fluoro-8-(6-fluoro-1-methyl-1H-indol-4-yl)-1,4,4-trimethyl-5H-[1,2,4]triazolo [4,3-a]quinoxaline]	< 100
COc1c(-c2cccc3c2ccn3CC(F)F)c(F)cc2c1-n1c(C)nnc1C(C)(C)N2 [Example 397, 8-[1-(2,2-Difluoro-ethyl)-1H-indol-4-yl]-7-fluoro-9-methoxy-1,4,4-trimethyl-5H-[1,2,4]triazolo[4,3-a]quinoxaline]	100 to 1000
COC(=O)CCn1ccc2c(-c3c(F)cc4c(c3F)-n3c(C)nnc3C(C)(C)N4)cccc21 [Example 219, 3-[4-(7,9-Difluoro-1,4,4-trimethyl-5H-[1,2,4]triazolo[4,3-a]quinoxalin-8-yl)-1H-indol-1-yl]-propionic acid methyl ester]	1000 to 15000
Cc1cc2c(c(F)c1-c1cc(F)cc3c1ccn3S(C)(=O)=O)-n1c(C)nnc1C(C)(C)N2 [Example 332, 9-Fluoro-8-(6-fluoro-1-methylsulfonyl-1H-indol-4-yl)-1,4,4,7-tetramethyl-5H-[1,2,4] triazolo[4,3-a]quinoxaline]	1000 to 15000
COc1c(-c2cc(F)cc3c(C)c[nH]c23)c(F)cc2c1-n1c(C)nnc1C(C)(C)N2 [Example 249, 7-Fluoro-8-(5-fluoro-3-methyl-1H-indol-7-yl)-9-methoxy-1,4,4-trimethyl-5H-[1,2,4]triazolo[4,3-a]quinoxaline]	< 100
Cc1nnc2n1-c1c(cc(Cl)c(-c3cc(F)cc4c3cnn4CC(F)F)c1F)NC2(C)C [Example 508, 7-Chloro-8-[1-(2,2-difluoro-ethyl)-6-fluoro-1H-indazol-4-yl]-9-fluoro-1,4,4-trimethyl-5H-[1,2,4] triazolo[4,3-a]quinoxaline]	100 to 1000
CCS(=O)(=O)n1ccc2c(-c3c(F)cc4c(c3OC)-n3c(C)nnc3C(C)(C)N4)cc(F)cc21 [Example 362, 8-[1-(Ethylsulfonyl)-6-fluoro-1H-indol-4-yl]-7-fluoro-9-methoxy-1,4,4-trimethyl-5H-[1,2,4]triazolo[4,3-a]quinoxaline]	< 100
Cc1nnc2n1-c1c(cc(F)c(-c3cc(F)cc4cc[nH]c34)c1C(F)(F)F)NC2(C)C [Example 516, 7-Fluoro-8-(5-fluoro-1H-indol-7-yl)-1,4,4-trimethyl-9-(trifluoro-methyl)-5H-[1,2,4]triazolo[4,3-a] quinoxaline]	100 to 1000
COc1cc2c(c(F)c1-c1cc(F)cc3c(C)c[nH]c13)-n1c(C)nnc1C(C)(C)N2 [Example 251, 9-Fluoro-8-(5-fluoro-3-methyl-1H-indol-7-yl)-7-methoxy-1,4,4-trimethyl-5H-[1,2,4]triazolo[4,3-a]quinoxaline]	100 to 1000
CC(=O)n1ccc2c(-c3c(F)cc4c(c3F)-n3c(C)nnc3C(C)(C)N4)cccc21 [Example 20, 1-(4-(7,9-difluoro-1,4,4-trimethyl-4,5-dihydro-[1,2,4]triazolo[4,3-a]quinoxalin-8-yl)-1H-indol-1-yl)ethanone]	100 to 1000
COc1c(-c2cc(C(F)(F)F)cc3[nH]ccc23)c(F)cc2c1-n1c(C)nnc1C(C)(C)N2 [Example 474, 7-Fluoro-9-methoxy-1,4,4-trimethyl-8-[6-(trifluoromethyl)-1H-indol-4-yl]-5H-[1,2,4]triazolo[4,3-a] quinoxaline]	100 to 1000
COCCn1ccc2c(-c3c(C)cc4c(c3C)-n3c(C)nnc3C(C)(C)N4)cccc21 [Example 331, 8-[1-(2-Methoxy-ethyl)-1H-indol-4-yl]-1,4,4,7,9-pentamethyl-5H-[1,2,4]triazolo[4,3-a]quinoxaline]	1000 to 15000
